The values below come from US11839613B2, “Pyrimidine derivatives as PGE2 receptor modulators” (IDORSIA PHARMACEUTICALS LTD, priority 2017, dated 2023).

The target of one assay is PTGER4 (EP4) (Homo sapiens (Human), UniProt P35408). Put plainly: cell-based.
The next assay concerns the target PTGER2 (EP2) (Homo sapiens (Human), UniProt P43116). The assay is described as follows: hEP2 b-arrestin assay (PathHunter HEK 293 PTGER2 b-arrestin cells). Format: cell-based. Conditions: antagonistic activity, beta-arrestin assay; read-out: hEP2 b-arr IC50. How it is done: Plate is pre-incubated 15 minutes at 37° C. Then five microliters of PGE2 (final conc. 5 μM) are transferred into the assay plate. Plate is incubated 120 minutes at 37° C.
(each concentration is measured in duplicate)

In the next assay the target is EP2 (Homo sapiens (Human), UniProt P43116). Put plainly: hEP2 cAMP assay (SF295 glioblastoma cells, HTRF cAMP). Format: cell-based. Conditions: antagonistic activity. Summed up:
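PGE2-driven cAMP accumulation was measured by HTRF in SF295 cells, which express endogenous EP2 only. Cells in assay buffer with 2 mM IBMX were pre-incubated 45 min at RT, then incubated 30 min at RT. Detection used competition between cellular cAMP and d2-cAMP for a cryptate anti-cAMP antibody.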
(In general: Cyclic AMP is a second messenger, typically raised through Gs and lowered through Gi signalling.)

The target in another assay is EP4 (Homo sapiens (Human), UniProt P35408). Put plainly: hEP4 cAMP assay (BT549 breast cancer cells, HTRF cAMP). Format: cell-based. The conditions noted are these: antagonistic activity, PGE2 6 nM. Summed up: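 BT549 breast cancer cells (endogenous EP4) in HBSS/20 mM HEPES/0.2% BSA/2 mM IBMX preincubated 45 min at RT with compound, then stimulated 30 min at RT with 6 nM PGE2 (final). cAMP read by competitive HTRF immunoassay, signal inversely proportional to cAMP.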
Chain of EP4 (P35408 whole entry): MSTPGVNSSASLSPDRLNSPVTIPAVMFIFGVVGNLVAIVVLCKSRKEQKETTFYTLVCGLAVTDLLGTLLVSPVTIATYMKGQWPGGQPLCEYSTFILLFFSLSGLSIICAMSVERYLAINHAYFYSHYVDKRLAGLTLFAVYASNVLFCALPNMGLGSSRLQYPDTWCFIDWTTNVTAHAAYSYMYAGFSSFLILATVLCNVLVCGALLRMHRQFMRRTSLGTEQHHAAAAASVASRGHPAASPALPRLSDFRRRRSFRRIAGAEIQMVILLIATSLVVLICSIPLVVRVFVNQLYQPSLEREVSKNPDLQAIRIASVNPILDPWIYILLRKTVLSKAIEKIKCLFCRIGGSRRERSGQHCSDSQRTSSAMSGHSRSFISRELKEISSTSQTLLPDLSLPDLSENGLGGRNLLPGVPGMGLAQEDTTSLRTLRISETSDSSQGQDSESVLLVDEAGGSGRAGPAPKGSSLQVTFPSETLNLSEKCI

Chain of PTGER2 (EP2) (P43116 whole entry): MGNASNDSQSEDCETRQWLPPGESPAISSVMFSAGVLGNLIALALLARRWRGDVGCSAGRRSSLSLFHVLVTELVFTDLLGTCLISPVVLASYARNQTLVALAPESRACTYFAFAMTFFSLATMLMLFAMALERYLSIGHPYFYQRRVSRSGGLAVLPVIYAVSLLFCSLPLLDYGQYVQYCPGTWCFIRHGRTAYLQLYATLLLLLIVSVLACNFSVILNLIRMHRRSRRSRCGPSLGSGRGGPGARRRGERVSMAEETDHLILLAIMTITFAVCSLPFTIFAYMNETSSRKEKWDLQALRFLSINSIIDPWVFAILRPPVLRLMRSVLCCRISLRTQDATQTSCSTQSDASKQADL
Chain of EP2 (P43116 whole entry): as above
Chain of PTGER4 (EP4) (P35408 whole entry): as the sequence (P35408 whole entry) above

As to `Cc1c(CCNc2cc(-c3ccc(C(=O)O)c(OC4CCC4)c3)ncn2)ccc2ccccc12` [Ex 168], the IC50 (commonly the midpoint of a concentration-inhibition curve) against PTGER4 (EP4) turned out to be 128 nM; on PTGER2 (EP2) it was 151 nM; on EP2 it was 214 nM; on EP4 it was 168 nM.

For the compound `COc1cc2c(cc1CCNc1cc(-c3ccc4c(C(=O)O)coc4c3)ncn1)OCCO2` [Ex 199, 6-{6-[2-(7-Methoxy-2,3-dihydro-benzo[1,4]dioxin-6-yl)-ethylamino]-pyrimidin-4-yl}-benzofuran-3-carboxylic acid], the IC50 against PTGER4 (EP4) was 2160 nM; at PTGER2 (EP2) it was 177 nM; against EP2, 62 nM; at EP4, 138 nM.

Take `C#Cc1cc2ccccc2cc1CCNc1cc(-c2ccc(OCC(=O)O)c(OCC)c2)ncn1` [Ex 103, (2-Ethoxy-4-{6-[2-(3-ethynyl-naphthalen-2-yl)-ethylamino]-pyrimidin-4-yl}-phenoxy)-acetic acid]: the half-inhibitory concentration (IC50) came out at 18 nM at PTGER4 (EP4), 51 nM on PTGER2 (EP2), 89 nM at EP2 and 71 nM against EP4.

`CCOc1cc(-c2cc(NCCc3ccc4sccc4c3)ncn2)sc1-c1noc(=O)[nH]1` [Example 340, 3-{5-[6-(2-Benzo[b]thiophen-5-yl-ethylamino)-pyrimidin-4-yl]-3-ethoxy-thiophen-2-yl}-[1,2,4]oxadiazol-5(4H)-one]: the half-maximal inhibitory concentration (IC50) against PTGER4 (EP4) came to 3 nM; on PTGER2 (EP2), 12 nM; at EP2 it was 104 nM; on EP4, 11 nM.

For `CCOc1cc(-c2cc(NCCc3ccc4ccccc4c3C)ncn2)sc1CCC(=O)O` [Ex 57, 3-(3-Ethoxy-5-{6-[2-(1-methyl-naphthalen-2-yl)-ethylamino]-pyrimidin-4-yl}-thiophen-2-yl)-propionic acid], the IC50 against PTGER4 (EP4) was determined as 34 nM; at PTGER2 (EP2) it was 195 nM; against EP2, 191 nM; against EP4 it was 28 nM.

For the compound `CCCCOc1cc(-c2cc(NCCc3ccc4ccccc4c3C)ncn2)cc(F)c1C(=O)O` [Ex 150], the half-inhibitory concentration (IC50) stood at 222 nM against PTGER4 (EP4), 230 nM on PTGER2 (EP2), 219 nM at EP2 and 144 nM against EP4.

For `CCOc1cc(-c2cc(NCCc3ccc4ccccc4c3C)ncn2)ccc1NCC(=O)O` [Ex 205], the IC50 turned out to be 47 nM against PTGER4 (EP4), 118 nM at PTGER2 (EP2), 190 nM on EP2 and 244 nM against EP4.

For the compound `CCCc1cc(-c2cc(NCCc3cc(F)c4sccc4c3)ncn2)ccc1CC(=O)O` [Example 390, (4-{6-[2-(7-Fluoro-benzo[b]thiophen-5-yl)-ethylamino]-pyrimidin-4-yl}-2-propyl-phenyl)-acetic acid], the IC50 on PTGER4 (EP4) was 29 nM; at PTGER2 (EP2), 264 nM; against EP2 it was 590 nM; against EP4 it was 32 nM.

For `CCOc1cc(-c2cc(NCCc3cc(F)c4sccc4c3)ncn2)ccc1-c1noc(=O)[nH]1` [Example 451, 3-(2-Ethoxy-4-{6-[2-(7-fluoro-benzo[b]thiophen-5-yl)-ethylamino]-pyrimidin-4-yl}-phenyl)-[1,2,4]oxadiazol-5(4H)-one], the IC50 against PTGER4 (EP4) was determined as 21 nM; on PTGER2 (EP2), 71 nM; against EP2, 660 nM; on EP4 (BT549 cells), 16 nM.

Turning to `CCOc1cc(-c2cc(NCCc3cc4ccsc4cc3C)ncn2)sc1C(=O)O` [Ex 34, 3-Ethoxy-5-{6-[2-(6-methyl-benzo[b]thiophen-5-yl)-ethylamino]-pyrimidin-4-yl}-thiophene-2-carboxylic acid], the IC50 against PTGER4 (EP4) is 25 nM; on PTGER2 (EP2) it was 6 nM; against EP2, 8 nM; at EP4, 18 nM.

For the compound `CCOc1cc(-c2cc(NCCc3ccc4ccccc4c3C)ncn2)ccc1C(=O)O` [Ex 172, 2-Ethoxy-4-{6-[2-(1-methyl-naphthalen-2-yl)-ethylamino]-pyrimidin-4-yl}-benzoic acid], the IC50 worked out at 287 nM at PTGER4 (EP4), 157 nM at PTGER2 (EP2), 137 nM against EP2 and 181 nM at EP4.

With `CCOc1cc(-c2cc(NCCc3ccc4cc[nH]c4c3)ncn2)sc1C(=O)O` [Ex 24, 3-Ethoxy-5-{6-[2-(1H-indol-6-yl)-ethylamino]-pyrimidin-4-yl}-thiophene-2-carboxylic acid], the IC50 at PTGER4 (EP4) was 18 nM; on PTGER2 (EP2), 72 nM; against EP2 it was 52 nM; against EP4, 15 nM.

On to `CCOc1cc(-c2cc(NCCc3ccc4c(c3)OCCO4)ncn2)sc1C(=O)O` [Ex 41, 5-{6-[2-(2,3-Dihydro-benzo[1,4]dioxin-6-yl)-ethylamino]-pyrimidin-4-yl}-3-ethoxy-thiophene-2-carboxylic acid], for which the IC50 at PTGER4 (EP4) amounted to 30 nM; on PTGER2 (EP2) it was 405 nM; against EP2, 164 nM; against EP4 it was 21 nM.

With `CCOc1nc(-c2cc(NCCc3ccc4ccccc4c3C)ncn2)sc1C(=O)O` [Example 350, 4-Ethoxy-2-{6-[2-(1-methyl-naphthalen-2-yl)-ethylamino]-pyrimidin-4-yl}-thiazole-5-carboxylic acid], the half-maximal inhibitory concentration (IC50) was 21 nM against PTGER4 (EP4), 83 nM at PTGER2 (EP2), 51 nM on EP2 and 10 nM on EP4.

Regarding `C=C(C(=O)O)c1ccc(-c2cc(NCCc3cc4c(cc3OC)OCCO4)ncn2)cc1` [Ex 337], the 50% inhibitory concentration (IC50) came to 1320 nM against PTGER4 (EP4), 664 nM at PTGER2 (EP2), 1310 nM against EP2 and 1430 nM at EP4.

Consider `CCOc1cc(-c2cc(NCCc3cc(Cl)c4c(c3)OCCO4)ncn2)sc1C(=O)O` [Ex 51, 5-{6-[2-(8-Chloro-2,3-dihydro-benzo[1,4]dioxin-6-yl)-ethylamino]-pyrimidin-4-yl}-3-ethoxy-thiophene-2-carboxylic acid], for which the IC50 against PTGER4 (EP4) is 22 nM; on PTGER2 (EP2), 230 nM; at EP2, 207 nM; on EP4 it was 25 nM.

On to `CCCCOc1cc(-c2cc(NCCc3ccc4ccccc4c3C)ncn2)ccc1C(=O)O` [Ex 169, 2-Butoxy-4-{6-[2-(1-methyl-naphthalen-2-yl)-ethylamino]-pyrimidin-4-yl}-benzoic acid], for which the IC50 on PTGER4 (EP4) came to 269 nM; on PTGER2 (EP2), 141 nM; on EP2, 125 nM; against EP4 it was 168 nM.

With `CCOc1cc(-c2cc(NCCc3ccc4sccc4c3)ncn2)ccc1CC(=O)O` [Ex 189], the IC50 on PTGER4 (EP4) was found to be 108 nM; at PTGER2 (EP2), 158 nM; on EP2, 530 nM; against EP4 it was 208 nM.

Take `CCOc1cc(-c2cc(NCCc3cc4c(cc3OC)OCCO4)ncn2)ccc1OC(C)C(=O)O` (stereo not drawn) [Ex 201]: the IC50 stood at 111 nM against PTGER4 (EP4), 83 nM at PTGER2 (EP2), 133 nM against EP2 and 229 nM on EP4.

Consider `CCOc1cc(-c2cc(NCCc3cc4ccccc4cc3OC)ncn2)sc1C(=O)O` [Ex 9, 3-Ethoxy-5-{6-[2-(3-methoxy-naphthalen-2-yl)-ethylamino]-pyrimidin-4-yl}-thiophene-2-carboxylic acid], for which the IC50 is 6 nM at PTGER4 (EP4), 59 nM on PTGER2 (EP2), 67 nM against EP2 and 6 nM at EP4.

For `O=C(O)c1cc2cc(-c3cc(NCCc4ccc5sccc5c4)ncn3)ccc2o1` [Ex 38, 5-[6-(2-Benzo[b]thiophen-5-yl-ethylamino)-pyrimidin-4-yl]-benzofuran-2-carboxylic acid], the IC50 against PTGER4 (EP4) came out at 123 nM; at PTGER2 (EP2) it was 226 nM; at EP2, 210 nM; against EP4 it was 28 nM.
